Reference: patent US8642807B2, “Crystallized diacetylenic indicator compounds and methods of preparing the compounds” (Temptime Corporation, priority 2007, dated 2014)

Key:
[1] = Comparative color-change reactivities of pressed pellets, cyan optical density after ageing at 37, 45 or 70° C. (Example 4); format: physicochemical; details: for color change kinetics / reactivity relative to raw product: 37° C., FIG. 12; for activation energy: color-change (solid-state polymerization) reaction of pellets
Protocol: Sample pellets are prepared from crystalline diacetylenic monomer powder using an E-Z Press 12-Ton Hydraulic Press and KBr Pellet Kit with 13 mm die set, as supplied by International Crystal Laboratories (Garfield, N.J.). Using about 300 mg powder, a pressure of 5 to 8 tons is applied for 2-3 minutes. Samples of 2,4-hexadiyn-1,6-bis(ethylurea) precipitated from dimethyl sulfoxide, methanol and a 4:1 by weight ethanol/water mixture are prepared. Pellets of raw 2,4-hexadiyn-1,6-bis(ethylurea) crystals (“KE raw”), precipitated from a solution in hot glacial acetic acid, using methanol as a precipitant, shortly after the 2,4-hexadiyn-1,6-bis(ethylurea) was synthesized, are included as controls.
While being handled by the edges, an individual pellet is placed in a transparent heat-seal bag, about 50 mm by 115 mm, vacuum sealed and placed into a heat-sealable foil pouch. The foil pouch is vacuum-sealed using a Fuji Impulse tabletop vacuum heat sealer. The sealed foil pouch containing the pellets is stored in a freezer at −30° C., or other suitable temperature, until ready for testing.
The heat-sealed foil pouch samples containing the pellets are placed in a water bath, for example a Huber circulating water bath, set to appropriate temperatures for example 37° C., 45° C. or 70° C., and aged for suitable measured time periods such as a few days at 37° C. or a few hours at 70° C. where the reaction proceeds more rapidly. The samples are weighted to keep them immersed in the water during the test. Timing is started immediately after each pouch is placed into the water bath. The pouch is removed at the end of the designated test period and its optical density is measured.
To measure optical density the pouch is briefly immersed in a second water bath set at 20° C. to quench the sample and prevent further color change during measurement. The foil pouch is cut open leaving the pellet inside the transparent heat-sealed bag. The reaction kinetics of the diacetylenic monomer are determined by measuring the cyan optical density (O.D.) of the aged pellets using an X-Rite 404 color reflection densitometer. The optical density can be measured on an arbitrary scale and used for comparative indications of color change reactivity.
In order to compensate for the thickness of the pellets, which are about 2 mm thick, when using the densitometer, the densitometer can be raised on to an elevated platform of corresponding height.

[2] = Room temperature solubility of 4DOD in solvent systems, saturated solution dried and weighed (Example 2A); format: physicochemical; details: about 25° C.; for Calculated solubility of 4DOD: stirred 16 hours
Protocol: To serve as indicator agent, a […] polymerizable diacetylenic monomer, namely 5,7-dodecadiyn-1,12 diol bis(n-octadecyl urethane), “4DOD” hereinafter, is synthesized in sufficient quantity for preparation of a master batch of ink, by the method described in Yee U.S. Pat. No. 4,215,208 at column 17, lines 47-65 and is stored in a freezer. A small quantity of 4DOD is taken from frozen storage and is tested at room temperature for solubility in various solvent systems employing the following procedure.
100 g of deionized water is weighed into a 200 mL glass beaker. 4DOD powder is added to the glass beaker until the solution is saturated allowing excess 4DOD to remain present as undissolved solid. 75 g of deionized water is weighed into another 200 mL glass beaker, and 25 g acetone is added. 4DOD is then added to the water-acetone solvent system in the glass beaker until the solution is saturated and an excess of 4DOD remains as undissolved solid. 75 g of deionized water is weighed into a third 200 mL glass beaker. 25 g ethanol is added to the water and then 4DOD is added to the water-ethanol mixture until the solution is saturated and an excess of 4DOD remains as undissolved solid. Each solution is stirred on a magnetic plate for 16 hours at a controlled room temperature of about 25° C.
After 16 hours of stirring, 7 g of each solution (soluble portion only, avoiding any undissolved solid material) is transferred to a separate aluminum foil pan. The aluminum foil pans are left to stand under a fume hood for 2 hours to allow any volatile solvent to evaporate, and are then dried in a vacuum oven for one 1 hour. Each aluminum foil pan is then weighed and the solubility of the 4DOD in each solvent system is calculated in terms of the percent of solute based on the weight of the solvent system.

CCNC(=O)NCC#CC#CCNC(=O)NCC [2,4-hexadiyn-1,6-bis(ethylurea)]
color change kinetics / reactivity relative to raw product [1]: modestly faster reactivity than raw 2,4-hexadiyn-1,6-bis(ethylurea)
reactivity profile ([1]; 45° C., FIG. 13): close to that of the pyridine product

5,7-dodecadiyn-1,12-bis-n-octadecyl urethane [4DOD]
Calculated solubility of 4DOD ([2]; 75% Water 25% Acetone): 10% wt %
Calculated solubility of 4DOD ([2]; 100% Acetone): 32% wt %
Calculated solubility of 4DOD ([2]; 100% Ethanol): 37% wt %
Calculated solubility of 4DOD ([2]; Water): 0.03% wt %
solubility in the individual organic solvent alone, in words ([2]; ethanol or acetone alone): remarkably high solubility
solubility in water, in words ([2]; water): minimal solubility

CCNC(=O)NCC#CC#CCNC(=O)NCC [2,4-hexadiyn-1,6-bis(ethylurea) crystallized from pyridine]
color change kinetics / reactivity relative to raw product [1]: faster color change kinetics than does the raw product
activation energy [1]: about 19 kcal/mol

CCNC(=O)NCC#CC#CCNC(=O)NCC [raw product, 2,4-hexadiyn-1,6-bis(ethylurea), reference compound]
activation energy [1]: 23 kcal/mol
